Assay results: PMC12621189, “Optimization of Selective and CNS Penetrant Alkyne-Based TREK Inhibitors: The Discovery and Characterization of ONO-9517601 (VU6022856) and ONO-7927846 (VU6024391)” (Journal of Medicinal Chemistry, 2025)
Converted amounts (≈) assume the structure as drawn.

How the values were obtained:
[1] = target: Kv4.3 (Homo sapiens, UniProt Q9UK17); assay: MPC ion channel panel, Kv4.3; assay type: cell-based
[2] = target: Kir2.2 (Homo sapiens, UniProt Q14500); assay: MPC ion channel panel, Kir2.2; assay type: cell-based
[3] = Plasma protein binding, human (equilibrium dialysis); assay type: in vitro ADME; settings: pH 7.4, read-out: PPB human (converted)
Experimental: Plasma protein binding and Brain homogenate binding: Determination of fraction unbound (f u) in plasma was conducted in vitro via equilibrium dialysis using HTDialysis (HTD) membrane plates. The top half of the plate was filled with 100 uL of Dubelco’s Phosphate Buffered Saline, pH 7.4 (DPBS). Compounds were diluted into plasma from each species (5 µM final concentration), which was aliquoted in triplicate to the ‘bottom half’ of the prepared HTD plate wells. The HTD plate was sealed and incubated for 6 hours at 37 °C. Following incubation, each well (both top and bottom halves) were transferred (20 µL) to the corresponding wells of a 96-shallow-well (V-bottom) plate. The daughter plates were then matrix-matched (DPBS side wells received equal volume of plasma, and plasma side wells received equal volume of DPBS), and extraction solution (120 µL; acetonitrile containing 50 nM carbamazepine as IS) was added to all wells of both daughter plates to precipitate protein and extract test article. The plates were then sealed and centrifuged (3500 rcf) for 10 minutes at ambient temperature. Supernatant (60 µL) from each well of the daughter plates was then transferred to the corresponding wells of new daughter plates (96-shallow-well, V bottom) containing water (Milli-Q, 60 µL/well), and the plates were sealed in preparation for LC-MS/MS analysis (see LC-MS/MS analysis method below).
The unbound fraction (f u) was calculated following the equation below, and mean values for each species were calculated from 3 replicates. […]
Fraction unbound for both plasma and brain samples was determined using Equation 4.
Equation 4 Determination of fraction unbound in plasma. […]

[4] = Aqueous solubility; assay type: physicochemical
[5] = target: CYP 1A2 (Homo sapiens, UniProt P05177); assay: CYP450 inhibition 1A2; assay type: in vitro ADME
[6] = target: Kv1.5 (Homo sapiens, UniProt P22460); assay: MPC ion channel panel, Kv1.5; assay type: cell-based
[7] = test system: MK-801 challenged mouse; assay: MK-801 challenge novel object recognition (NOR), mouse; assay type: in vivo; settings: dosed orally, data not shown
Experimental: Brain plasma concentration ratio (Kp) was calculated by dividing brain concentration by plasma concentration for each animal. Unbound brain to unbound plasma concentration ratio (Kp,uu) is calculated using the following formula: Kp,uu = (Brain ng/g x brain fu)/(plasma ng/ml x plasma fu).
In-vitro determination of blood-brain barrier penetration potential
Blood-brain barrier penetration was determined using MDR1-MDCK cell monolayers by Absorption Systems, following their protocol. In short, compounds were incubated at […] final concentration on one side of the cell monolayer for 2 hours. Compounds concentration on either side of the monolayer was determined by LC-MS/MS and apparent permeability and efflux ratio were determined as described in Wang, Q. et al.1
MK-801 induced novel object recognition test […]
Behavioral analysis: An observer blinds to treatment condition and novel object location used the video recordings to score the interaction of the animal with the two objects offline. The duration an animal explored each object was determined as the total time an animal is facing the object with its nose being ≦ 2 cm away from the object and some discernible whisker movement […]
Data Analysis: Statistical analyses can be performed using EXSUS ver 8.1 (CAC Croit Corporation). The vehicle and compound-treated groups were analyzed by one-way ANOVA followed by Dunnett's test. […]

CYP 1A2, sequence (P05177 whole entry): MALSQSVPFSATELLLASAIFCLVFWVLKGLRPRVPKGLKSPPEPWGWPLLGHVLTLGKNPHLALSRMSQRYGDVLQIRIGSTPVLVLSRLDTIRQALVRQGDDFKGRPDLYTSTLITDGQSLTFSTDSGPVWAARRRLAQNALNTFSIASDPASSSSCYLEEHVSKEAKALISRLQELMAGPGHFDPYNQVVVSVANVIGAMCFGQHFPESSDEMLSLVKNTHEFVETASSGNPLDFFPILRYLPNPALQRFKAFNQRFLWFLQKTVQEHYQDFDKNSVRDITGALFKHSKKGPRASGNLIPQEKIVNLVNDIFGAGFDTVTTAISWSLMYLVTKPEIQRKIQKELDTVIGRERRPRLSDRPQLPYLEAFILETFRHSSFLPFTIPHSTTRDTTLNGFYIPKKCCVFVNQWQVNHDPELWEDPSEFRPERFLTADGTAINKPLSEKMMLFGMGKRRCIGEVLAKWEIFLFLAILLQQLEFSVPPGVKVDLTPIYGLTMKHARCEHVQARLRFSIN
Kir2.2, sequence (Q14500 whole entry): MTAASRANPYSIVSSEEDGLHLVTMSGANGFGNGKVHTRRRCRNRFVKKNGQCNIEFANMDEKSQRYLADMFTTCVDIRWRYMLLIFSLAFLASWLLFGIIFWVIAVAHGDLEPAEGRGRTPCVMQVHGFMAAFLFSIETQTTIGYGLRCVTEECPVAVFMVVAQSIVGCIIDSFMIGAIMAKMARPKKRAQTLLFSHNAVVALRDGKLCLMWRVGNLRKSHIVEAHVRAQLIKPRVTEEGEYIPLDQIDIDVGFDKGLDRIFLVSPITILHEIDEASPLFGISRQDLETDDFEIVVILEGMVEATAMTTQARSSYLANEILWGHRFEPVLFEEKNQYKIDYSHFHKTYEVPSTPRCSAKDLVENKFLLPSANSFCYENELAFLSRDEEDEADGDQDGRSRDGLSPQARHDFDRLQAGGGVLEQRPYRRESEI
Kv1.5, sequence (P22460 whole entry): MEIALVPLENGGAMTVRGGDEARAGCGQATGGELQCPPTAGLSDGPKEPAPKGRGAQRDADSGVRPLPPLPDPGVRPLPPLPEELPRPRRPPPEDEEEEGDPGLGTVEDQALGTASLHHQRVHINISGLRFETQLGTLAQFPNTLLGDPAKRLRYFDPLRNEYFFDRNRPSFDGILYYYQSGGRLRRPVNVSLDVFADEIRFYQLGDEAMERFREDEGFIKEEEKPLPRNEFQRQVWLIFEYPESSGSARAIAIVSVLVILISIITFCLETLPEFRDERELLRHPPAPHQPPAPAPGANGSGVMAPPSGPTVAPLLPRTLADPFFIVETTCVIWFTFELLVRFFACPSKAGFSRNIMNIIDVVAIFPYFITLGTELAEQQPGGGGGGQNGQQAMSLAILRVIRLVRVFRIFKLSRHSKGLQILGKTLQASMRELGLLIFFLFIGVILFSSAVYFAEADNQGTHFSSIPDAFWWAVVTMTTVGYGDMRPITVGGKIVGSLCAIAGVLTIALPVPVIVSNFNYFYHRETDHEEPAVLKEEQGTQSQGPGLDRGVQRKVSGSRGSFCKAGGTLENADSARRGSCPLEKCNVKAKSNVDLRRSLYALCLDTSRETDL
Kv4.3, sequence (Q9UK17 whole entry): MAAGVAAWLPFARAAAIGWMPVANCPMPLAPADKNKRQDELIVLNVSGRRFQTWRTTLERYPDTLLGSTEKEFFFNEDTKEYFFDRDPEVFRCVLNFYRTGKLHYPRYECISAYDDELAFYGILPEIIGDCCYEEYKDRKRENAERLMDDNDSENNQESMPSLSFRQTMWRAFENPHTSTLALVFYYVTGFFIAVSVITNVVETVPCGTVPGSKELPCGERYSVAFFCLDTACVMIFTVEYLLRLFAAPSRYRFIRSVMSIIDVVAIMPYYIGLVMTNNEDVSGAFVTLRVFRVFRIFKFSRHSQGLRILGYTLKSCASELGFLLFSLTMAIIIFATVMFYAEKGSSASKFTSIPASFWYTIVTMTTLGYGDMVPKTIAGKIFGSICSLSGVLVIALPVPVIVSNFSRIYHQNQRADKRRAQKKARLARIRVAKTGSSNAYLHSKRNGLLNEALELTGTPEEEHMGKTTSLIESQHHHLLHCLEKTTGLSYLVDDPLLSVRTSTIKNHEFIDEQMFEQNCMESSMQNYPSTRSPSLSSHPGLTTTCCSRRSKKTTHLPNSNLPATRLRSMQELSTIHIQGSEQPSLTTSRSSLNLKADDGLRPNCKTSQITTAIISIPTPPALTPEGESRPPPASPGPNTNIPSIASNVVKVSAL

Structure (SMILES) | inhibition at 10 µM [1] [%] | inhibition at 10 µM [2] [%] | fraction unbound at 6 h, 5 µM [3] | solubility [4] [µM] | IC50 [5] [µM] | inhibition at 10 µM [6] [%] | MED in the NOR cognition assay, MK-801 challenged mouse [7] [mg/kg]
CC(=O)N1CCC(n2ncc(Cl)c2C(=O)Nc2ncc(C#Cc3ccccc3)cc2C)CC1 [Compound 10, 1-(1-Acetylpiperidin-4-yl)-4-chloro-N-(3-methyl-5-(phenylethynyl)pyridin-2-yl)-1H-pyrazole-5-carboxamide] | ≤ 50 | 51 | 0.01 | 31 (≈ 14.3 µg/mL) | 23.6 | ≤ 50 | 1
CC(=O)N1CC[C@@H](n2ncc(Cl)c2C(=O)Nc2ncc(C#Cc3ccc(F)cc3)cc2C)[C@H](F)C1 [Compound 11, 1-((3R,4R)-1-Acetyl-3-fluoropiperidin-4-yl)-4-chloro-N-(5-((4-fluorophenyl)ethynyl)-3-methylpyridin-2-yl)-1H-pyrazole-5-carboxamide] | ≤ 50 | ≤ 50 | 0.048 | 14 (≈ 6.97 µg/mL) | > 30 | ≤ 50 | 3
